How the values were obtained:
[1] = system: CqsSPa; test: V. harveyi bioluminescent reporter strain expressing cqsSPa; assay type: cell-based, Photobacterium angustum; conditions: for EC50: dose-dependent bioluminescence response
[2] = system: CqsSPa^S168C; assay type: cell-based, Photobacterium angustum; conditions: Fig. S2
[3] = target: T1, CqsSVh (Vibrio campbellii, UniProt A7N6S2); test: V. harveyi bioluminescent reporter strain expressing cqsSVh; assay type: cell-based, Vibrio harveyi
T1 sequence (A7N6S2 1-681): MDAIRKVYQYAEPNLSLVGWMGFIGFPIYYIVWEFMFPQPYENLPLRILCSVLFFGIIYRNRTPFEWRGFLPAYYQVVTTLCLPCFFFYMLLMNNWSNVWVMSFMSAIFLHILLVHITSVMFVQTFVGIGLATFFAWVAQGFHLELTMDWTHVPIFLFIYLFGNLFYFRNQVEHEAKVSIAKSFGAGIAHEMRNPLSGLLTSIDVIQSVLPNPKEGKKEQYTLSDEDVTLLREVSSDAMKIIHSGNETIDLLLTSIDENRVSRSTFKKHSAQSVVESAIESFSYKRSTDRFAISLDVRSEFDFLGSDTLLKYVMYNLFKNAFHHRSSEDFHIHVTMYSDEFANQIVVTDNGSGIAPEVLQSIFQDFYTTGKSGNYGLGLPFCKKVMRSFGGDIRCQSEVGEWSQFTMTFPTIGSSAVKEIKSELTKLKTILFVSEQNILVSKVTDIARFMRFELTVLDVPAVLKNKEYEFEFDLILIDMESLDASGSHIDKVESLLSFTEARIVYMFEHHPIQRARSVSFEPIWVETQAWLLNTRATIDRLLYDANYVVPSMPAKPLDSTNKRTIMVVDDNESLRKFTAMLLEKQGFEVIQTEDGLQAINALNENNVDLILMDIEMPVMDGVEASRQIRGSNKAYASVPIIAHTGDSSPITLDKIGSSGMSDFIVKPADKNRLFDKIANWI

[4] = target: CqsSVc (Vibrio cholerae serotype O1, UniProt Q9KM66); test: V. harveyi bioluminescent reporter strain expressing cqsSVc; assay type: cell-based
Sequence of CqsSVc (Q9KM66 whole entry, looked up): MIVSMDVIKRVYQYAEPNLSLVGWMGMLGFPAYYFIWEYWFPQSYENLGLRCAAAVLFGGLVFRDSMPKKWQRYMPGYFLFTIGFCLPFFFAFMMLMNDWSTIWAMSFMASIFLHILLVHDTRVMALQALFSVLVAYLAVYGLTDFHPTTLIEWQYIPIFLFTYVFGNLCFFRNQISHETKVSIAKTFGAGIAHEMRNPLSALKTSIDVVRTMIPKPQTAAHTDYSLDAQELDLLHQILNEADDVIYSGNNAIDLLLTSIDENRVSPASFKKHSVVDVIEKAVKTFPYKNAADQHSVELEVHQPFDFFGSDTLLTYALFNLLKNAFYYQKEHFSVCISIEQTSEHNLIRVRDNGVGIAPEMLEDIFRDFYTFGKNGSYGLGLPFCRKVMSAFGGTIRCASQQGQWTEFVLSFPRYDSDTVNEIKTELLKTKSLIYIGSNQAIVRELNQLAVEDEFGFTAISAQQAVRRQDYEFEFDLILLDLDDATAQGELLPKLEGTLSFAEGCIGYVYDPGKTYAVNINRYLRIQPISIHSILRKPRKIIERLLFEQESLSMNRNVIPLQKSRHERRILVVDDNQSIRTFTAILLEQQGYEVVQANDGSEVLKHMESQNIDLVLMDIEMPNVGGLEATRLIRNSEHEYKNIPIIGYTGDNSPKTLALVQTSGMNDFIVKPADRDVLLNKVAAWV

Row | SMILES | EC50 ([1]; reporter expressing CqsSPa) [nM] | increase in light production ([1]; reporter carrying cqsSPa, synthetic molecule at 5 μM) | detection of CAI-1 molecules [2] | EC50 [3] [nM] | light production ([3]; reporter carrying cqsSVh, synthetic molecule at 5 μM) | response (light production) in dose-response ([1]; reporter expressing CqsSPa) | EC50 [4] [nM]
1 | CCCCCCCCCC(=O)[C@@H](O)CC [C10-CAI-1, (S)-3-hydroxytridecan-4-one] | 12 | ~ 1000 fold | retained the ability to detect |  |  |  | 
2 | C/C=C(\N)C(=O)CCCCCCC [Ea-C8-CAI-1, (Z)-3-aminoundec-2-en-4-one] |  |  |  | 100 | produced light | modest response | 
3 | C/C=C(\N)C(=O)CCCCCCCCC [Ea-C10-CAI-1] | 4 |  | retained the ability to detect |  |  |  | 150
